In patent publication US7507742B2, “Spirocyclic derivatives” (Pfizer Inc., priority 2005, dated 2009):
One block for each molecule: values may come before it.

How the values were obtained:
PDE7B = target: T1, PDE7B (Homo sapiens, UniProt Q9NP56); test: PDE7B inhibition, [3H]-cAMP scintillation proximity assay; type: biochemical; conditions: IC50 converted to Ki by Cheng-Prussof equation; cell lysate with full length enzyme, ~25 nM cAMP
T1 construct: carried out using cell lysate containing full length PDE7A and PDE7B enzyme; made in house
T1 sequence (Q9NP56 whole entry, species assumed): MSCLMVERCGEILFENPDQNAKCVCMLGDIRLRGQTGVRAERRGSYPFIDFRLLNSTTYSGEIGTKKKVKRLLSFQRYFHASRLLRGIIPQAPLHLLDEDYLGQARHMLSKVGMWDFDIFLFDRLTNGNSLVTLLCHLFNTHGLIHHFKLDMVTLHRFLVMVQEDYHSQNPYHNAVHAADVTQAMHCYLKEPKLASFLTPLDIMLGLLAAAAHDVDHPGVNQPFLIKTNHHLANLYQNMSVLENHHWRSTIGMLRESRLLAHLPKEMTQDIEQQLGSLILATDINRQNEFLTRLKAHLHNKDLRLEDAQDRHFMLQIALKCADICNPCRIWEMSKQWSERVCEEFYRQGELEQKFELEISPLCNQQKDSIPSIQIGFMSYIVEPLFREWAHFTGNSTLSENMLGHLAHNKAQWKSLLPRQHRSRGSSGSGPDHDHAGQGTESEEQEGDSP
Protocol: (§1) The ability of the compounds of formula (I) to inhibit PDE7 may be measured using the following assay protocol.
(§2) PDE7A and PDE7B enzymes catalyse the hydrolysis of 3′,5′-cyclic adenosine monophosphate (cAMP) to the 5′adenosine monophosphate, 5′AMP. In a multiwell plate; PDE enzyme, [^3H]-cAMP and the tested compounds, are incubated at room temperature. The incubation is terminated by addition of commercially available yttrium silicate scintillation proximity assay (SPA) beads containing zinc sulphate. The yttrium silicate beads preferentially bind linear nucleotides, thus the product of the enzyme reaction, [^3H]-5′AMP binds to the bead to produce a light signal, which is detected by a scintillation counter. The amount of signal produced directly correlates with the amount of product formed, and thus the activity of the enzyme. The maximum signal is obtained where enzyme and substrate are incubated alone. The background signal is measured from wells either containing no enzyme, or from wells containing a supra-maximal concentration of a known PDE7A/B inhibitor. Each purified batch of enzyme is quality controlled and its Km, Vmax and specific activity determined from kinetic studies before use in compound inhibition studies. The inhibition of the enzyme, by a test compound, is calculated relative to the maximum and background responses.
(§3) The optimisation of this assay has been carried out using cell lysate containing full length PDE7A and PDE7B enzyme. The concentration of the enzyme in this cell lysate sample is unknown, so the specific activity of the cell lysate is used as a measure to ensure that the same activity per well is used despite any batch-to-batch variation of concentration/activity.
(§4) PDE7 stock enzyme was prepared and kept at −20° C. in appropriately sized aliquots to reduce the number of freeze/thaw cycles. […] PDE7A is diluted to 1/8000 and PDE7B to 1/10000.
(§5) The final assay [cAMP] of ˜25 nM is required, so ˜50 nM [^3H]-cAMP was prepared.
(§6) Compound dilutions and “background” wells were made 30 stronger than required in the assay plate to allow for 1 μl compound to be diluted by 29 μl of other assay components (14 μl enzyme and 15 μl radioligand). Thus for a final assay concentration of 10 μM, the compound must be at 300 μM in the compound addition plate. 4 mM stocks of compound are supplied in 100% DMSO (or are made up @ 4 mM from powder submissions). This requires 1/13.33 dilution in DMSO to be made.
(§7) 1 μl test compound was transferred into a suitable multi-well assay plate immediately prior to reagent assay addition, 14 μl enzyme solution was then added to the assay plate, followed by 15 μl substrate solution (ie: final assay volume 30 μl, with a final screening compound concentration of […]). The plate was then sealed using a plate sealer and incubated at room temperature for 45 min on the plate shaker.
(§8) 30 μl Yttrium Silicate PDE4 SPA beads were then added, ensuring constant stirring of the beads to give even distribution in the assay plate. The plate was then sealed using a plate sealer and incubated at room temperature for 30 mins on the plate shaker. The beads were then allowed to settle for 30 mins, before spinning the plates for 1 min at 200 g.
(§9) The plates were then read on a suitable radioactive counter, for example NXT-TopCount™ (available from Perkin Elmer) using the relevant protocol (30 second read time per well).
(§10) The data was fitted to a sigmoid curve using a least squares algorithm.
(§11) The IC50 value was converted to a K^i value using the Cheng-Prussof equation: […]

[1] = Human hepatic metabolic stability in cryopreserved human hepatocytes; type: in vitro ADME; conditions: human, hepatocytes, pH 7.4
Protocol: (§12) The human hepatic metabolic stability of the compounds of Examples 1-7 of the present application were assessed in the model described below. The compound of Example 75 of WO 02/074754, 5′-carboxypropoxy-8′-chloro-spiro[cyclohexane-1-4′-(3′,4′-dihydro)quinazolin]-2′(1′H)-one (hereinafter “Compound A”), which is believed to represent the closest state of the art, was used as a comparison.
(§13) Hepatocytes are used as an in vitro system to monitor hepatic metabolism as these intact cells contain all the hepatic enzymes found in vivo, including phase I enzymes, such as cytochrome P450 oxidases (CYPs), aldehyde oxidases and monoamine oxidases (MAOs), and phase 11 enzymes, such as UDP-glucuronyltransferases and sulfotransferases. Cryopreserved human hepatocytes are prepared from 5 donors and suspended in Williams' E media. 4-(2-hydroxyethyl)-1-piperazineethanesulfonic acid (HEPES) is added to a final concentration of 50 mM and pH is adjusted to 7.4. Test substrates are dissolved in DMSO are added to the hepatocytes to give a substrate concentration of 1 μM, with a final DMSO concentration in the incubation below 0.1%. The experiments are performed in 96 or 384 well plates at 37° C., with a hepatocyte density of 0.5 million viable cells/mL. Sampling times of 10, 20, 30, 60, 90, and 120 minutes are used and analytical quantitation is by LC-MS/MS. The intrinsic clearance (apparent) is calculated using the formula: CLint, app=[−slope/0.5 M cells/mL]·1000 μL/mL=μL/min/M cells.
(§14) The human hepatic metabolic stability of the compounds of the present invention was tested according to the above protocol.

PDE7A = target: T2, PDE7A (Homo sapiens, UniProt Q13946); test: PDE7A inhibition, [3H]-cAMP scintillation proximity assay; type: biochemical; conditions: IC50 converted to Ki by Cheng-Prussof equation; cell lysate with full length enzyme, ~25 nM cAMP
T2 construct: carried out using cell lysate containing full length PDE7A and PDE7B enzyme; made in house
T2 sequence (Q13946 whole entry, species assumed): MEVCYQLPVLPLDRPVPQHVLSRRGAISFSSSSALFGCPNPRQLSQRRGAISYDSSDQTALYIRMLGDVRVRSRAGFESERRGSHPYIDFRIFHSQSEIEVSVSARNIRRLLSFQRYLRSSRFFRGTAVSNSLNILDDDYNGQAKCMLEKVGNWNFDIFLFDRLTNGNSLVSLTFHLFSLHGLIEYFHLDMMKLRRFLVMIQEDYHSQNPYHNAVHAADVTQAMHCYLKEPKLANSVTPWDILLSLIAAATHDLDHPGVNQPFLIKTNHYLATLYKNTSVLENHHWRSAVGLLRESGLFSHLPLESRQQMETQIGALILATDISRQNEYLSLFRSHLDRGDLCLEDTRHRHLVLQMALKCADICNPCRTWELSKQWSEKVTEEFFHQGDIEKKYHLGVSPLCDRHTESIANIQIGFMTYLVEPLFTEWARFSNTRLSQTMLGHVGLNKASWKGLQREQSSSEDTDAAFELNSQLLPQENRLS
Protocol: as §1, §2, §3, §4, §5, §6, §7, §8, §9, §10, §11

[2] = Fraction unbound in rat plasma; type: in vitro ADME; conditions: for fraction unbound: read-out: fup (fraction unbound in rat plasma)
[3] = Estimate of human pharmacokinetics by scaling rat unbound clearance; conditions: for Clu man: estimated human clearance scaled from rat: Clu rat*(BWman/BWrat)^0.75, 70 kg man, 0.25 kg rat; for half-life: human, T1/2=[ln(2)*Vd]/Cl, Vd in man assumed 0.2 L/kg, read-out: Estimated T1/2 (human half-life) (converted)
Description: (§15) Based on the above pharmacokinetic data in the rat, the likely human pharmacokinetics of the compounds of Examples 1 and 2, and that of Compound A, can be estimated as follows. • Scaling the unbound rat plasma clearance (Clu rat) observed following intravenous administration to estimate an unbound human plasma clearance (Clu man) using the following relationship: Clu man=Clu rat*(BWman/BWrat)^0.75 where BWman & BWrat are the average body weights of man (70 kg) and rat (0.25 kg) respectively, and units of clearance are in ml/min. • Converting Clu man to estimate total blood clearance in man (Clman): Clman=[(Clu man)*fup]/B:P where fup is the free fraction of unbound drug in plasma and B:P is the blood to plasma ratio in human blood. • An estimate of human half-life is presented for each compound, derived using the relationship: T1/2=[In(2)*Vd]/Cl where T1/2 is the estimated human half-life in hours, Vd is the volume of distribution in man (assumed to be 0.2 L/kg, due to the physicochemistry of this series) and Cl is the human clearance.

[4] = Free fraction of unbound drug in plasma used for the human estimate; type: in vitro ADME; conditions: Table 7, used to convert Clu man to Clman; for fraction unbound: human, plasma, read-out: fup (free fraction of unbound drug in plasma)
Description: as §15

[5] = Blood to plasma ratio in human blood; type: in vitro ADME; conditions: for blood plasma ratio: human, read-out: B:P (blood to plasma ratio)
Description: as §15

Rat IV pharmacokinetics = type: in vivo
Protocol: The pharmacokinetic properties of the compounds of Examples 1 and 2 were tested in the rat model described below. The compound of Example 75 of WO 02/074754, 5′-carboxypropoxy-8′-chloro-spiro[cyclohexane-1-4′-(3′,4′-dihydro)quinazolin]-2′(1′H)-one (hereinafter “Compound A”), which is believed to represent the closest state of the art, was used as a comparison.
The test compounds were administered to male rats (each rat receiving one compound), via the tail vein, at a dose of 1 mg/kg (0.08 mg/kg for the compound of Example 1). Blood samples were withdrawn from the rats via a surgically implanted jugular vein cannula at predetermined time-points after administration, and centrifuged to produce plasma. Plasma samples were analysed via a specific LC-MS/MS assay for the quantification of drug in plasma. The resulting plasma concentration-time curves were interrogated using a non-compartmental pharmacokinetic analysis in order to understand the disposition of each compound. The resulting output was subsequently used to estimate the likely human pharmacokinetic profile, as described below.
The mean, dose normalised, pharmacokinetic profiles of the compounds of Examples 1 and 2, as well as that of Compound A, following 1 mg/kg intravenous administration are shown in Table 6 below and in FIG. 1.

Human Hepatocytes = test: Human hepatic metabolic stability in cryopreserved human hepatocytes; type: in vitro ADME; conditions: intrinsic clearance (apparent); 1 μM substrate, 0.5 million viable cells/mL, 37° C., 5 donors
Protocol: as §12, §13, §14

[6] = male rats, intravenous 1 mg/kg (0.08 mg/kg for Example 1)

Ki (PDE7B): 1420 nM
hepatocyte CLint at 1 μM [1]: < 5 µL/min/1e6 cells
Ki (PDE7A): 276 nM
Compound: O=C1Nc2c(F)ccc(OCC3(C(=O)O)CCC3)c2C2(CCCCC2)N1 [Example 5, 1-[(8′-fluoro-2′-oxo-2′,3′-dihydro-1′H-spiro[cyclohexane-1,4′-quinazolin]-5′-yl)oxymethyl]cyclobutanecarboxylic acid]

Ki (PDE7B): 17.6 nM
hepatocyte CLint at 1 μM [1]: < 5 µL/min/1e6 cells
Compound: O=C1Nc2c(Cl)ccc(O[C@H]3C[C@H](C(=O)O)C3)c2C2(CCCCCC2)N1 [Example 6, Trans-3-[(8′-chloro-2′-oxo-2′,3′-dihydro-1′H-spiro[cycloheptyl-1,4′-quinazolin]-5′-yl)oxy]cyclobutanecarboxylic acid]

Ki (PDE7B): 144 nM
hepatocyte CLint at 1 μM [1]: < 5 µL/min/1e6 cells
Ki (PDE7A): 11.6 nM
Compound: N#Cc1ccc(O[C@H]2C[C@H](C(=O)O)C2)c2c1NC(=O)NC21CCCCC1 [Example 4, trans-3-[(8′-cyano-2′-oxo-2′,3′-dihydro-1′H-spiro[cyclohexane-1,4′-quinazolin]-5′-yl)oxy]cyclobutanecarboxylic acid]

Ki (PDE7B): 4.6 nM
fraction unbound [2]: 0.07
Clu man [3]: 0.8 mL/min/kg
half-life [3]: 3 h
hepatocyte CLint at 1 μM [1]: < 5 µL/min/1e6 cells
fraction unbound [4]: 0.07
Ki (PDE7A): 1.9 nM
blood plasma ratio [5]: 0.6
Clu (unbound rat plasma clearance) (Rat IV pharmacokinetics; male, rat, in vivo, iv): 27 mL/min/kg
Clu rat (Rat IV pharmacokinetics; male, rat, in vivo, iv): 27 mL/min/kg
clearance (Rat IV pharmacokinetics; male, rat, in vivo, iv): 1.9 mL/min/kg
half-life (Rat IV pharmacokinetics; male, rat, in vivo, iv): 4 h
Vd (volume of distribution in rat) (Rat IV pharmacokinetics; rat, in vivo, iv): 0.6 L/kg
Compound: O=C1Nc2c(Cl)ccc(O[C@H]3C[C@@H](C(=O)O)C3)c2C2(CCCCC2)N1 [Example 1, Cis-3-[(8′-chloro-2′-oxo-2′,3′-dihydro-1′H-spiro[cyclohexane-1,4′-quinazolin]-5′-yl)oxy]cyclobutanecarboxylic acid]

Ki (PDE7B): 13.4 nM
fraction unbound [2]: 0.1
Clu man [3]: 0.2 mL/min/kg
half-life [3]: 10 h
hepatocyte CLint at 1 μM [1]: < 5 µL/min/1e6 cells
fraction unbound [4]: 0.01
Ki (PDE7A): 3.1 nM
blood plasma ratio [5]: 0.7
Clu (unbound rat plasma clearance) (Rat IV pharmacokinetics; male, rat, in vivo, iv): 70 mL/min/kg
Clu rat (Rat IV pharmacokinetics; male, rat, in vivo, iv): 70 mL/min/kg
clearance (Rat IV pharmacokinetics; male, rat, in vivo, iv): 0.7 mL/min/kg
half-life (Rat IV pharmacokinetics; male, rat, in vivo, iv): 11 h
Vd (volume of distribution in rat) (Rat IV pharmacokinetics; rat, in vivo, iv): 0.7 L/kg
Compound: O=C1Nc2c(Cl)ccc(O[C@H]3C[C@H](C(=O)O)C3)c2C2(CCCCC2)N1 [Example 2]

fup (fraction unbound in rat plasma) [2]: 0.045
Clu man [3]: 1.9 mL/min/kg
fup (free fraction of unbound drug in plasma) [4]: 0.03
B:P (blood to plasma ratio) [5]: 0.6
Clu (unbound rat plasma clearance) (Rat IV pharmacokinetics; Clu = Cl/fup, male rats, intravenous): 156 mL/min/kg
T1/2 (half life) (Rat IV pharmacokinetics; [6]): <1 h
Vd (volume of distribution in rat) (Rat IV pharmacokinetics; [6]): 0.4 L/kg
Cl (rat clearance) (Rat IV pharmacokinetics; male rats, intravenous 1 mg/kg (0.08 mg/kg for Example 1), mean, dose normalised): 7 mL/min/kg
Clu rat (Rat IV pharmacokinetics; unbound rat plasma clearance after intravenous administration, as repeated in Table 7): 156 mL/min/kg
Compound: O=C(O)CCCOc1ccc(Cl)c2c1C1(CCCCC1)NC(=O)N2 [Compound A, 5′-carboxypropoxy-8′-chloro-spiro[cyclohexane-1-4′-(3′,4′-dihydro)quinazolin]-2′(1′H)-one, reference compound]
Human Hepatocytes CLint (Human Hepatocytes): 25 μL/min/M cells

Ki (PDE7B): 140 nM
hepatocyte CLint at 1 μM [1]: < 5 µL/min/1e6 cells
Ki (PDE7A): 19.8 nM
Compound: O=C1Nc2c(Cl)ccc(O[C@H]3C[C@H](C(=O)O)C3)c2C2(CCCC2)N1 [Example 7, Trans-3-[(8′-chloro-2′-oxo-2′,3′-dihydro-1′H-spiro[cyclopentyl-1,4′-quinazolin]-5′-yl)oxy]cyclobutanecarboxylic acid]

Ki (PDE7B): 108 nM
hepatocyte CLint at 1 μM [1]: < 5 µL/min/1e6 cells
Ki (PDE7A): 15.6 nM
Compound: O=C1Nc2c(F)ccc(OCC3CC(C(=O)O)C3)c2C2(CCCCC2)N1 (centres unmarked) [Example 3, 3-[(8′-fluoro-2′-oxo-2′,3′-dihydro-1′H-spiro[cyclohexane-1,4′-quinazolin]-5′-yl)oxymethyl]cyclobutanecarboxylic acid]
